T1: Alcohol dehydrogenase (ADH) (Saccharomyces cerevisiae, UniProt P00330)
T1 construct: gene ADH1
T1 sequence (P00330 2-348): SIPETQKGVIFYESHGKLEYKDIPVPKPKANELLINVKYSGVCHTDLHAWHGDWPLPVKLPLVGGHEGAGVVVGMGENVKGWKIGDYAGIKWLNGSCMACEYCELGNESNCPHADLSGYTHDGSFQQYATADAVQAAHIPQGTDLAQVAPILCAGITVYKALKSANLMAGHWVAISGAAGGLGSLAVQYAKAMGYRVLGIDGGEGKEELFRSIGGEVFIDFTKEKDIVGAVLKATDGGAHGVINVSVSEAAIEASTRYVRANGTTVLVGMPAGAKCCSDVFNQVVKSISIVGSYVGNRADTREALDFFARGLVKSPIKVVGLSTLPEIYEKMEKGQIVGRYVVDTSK


Legend:
[1] = target: T1, Alcohol dehydrogenase (ADH); assay: NADH absorbance at […] nm, immobilized ADH nanoflowers, % inhibition at […]; assay type: biochemical
[2] = target: T1, Alcohol dehydrogenase (ADH); assay: NADH absorbance at […] nm, immobilized ADH nanoflowers, % inhibition at […] (weak); assay type: biochemical
[3] = target: T1, Alcohol dehydrogenase (ADH); assay: NADH absorbance at […] nm, dose-response; free ADH (IC50 […] on immobilized ADH HNFs); assay type: biochemical
[4] = substrate: NC(=O)c1ccc[n+]([C@@H]2O[C@H](COP(=O)([O-])OP(=O)(O)OC[C@H]3O[C@@H](n4cnc5c(N)ncnc54)[C@H](O)[C@@H]3O)[C@@H](O)[C@H]2O)c1; assay: purified protein; assay type: biochemical, Saccharomyces cerevisiae; conditions: Zn2+

Row | inhibition at 1500 µM ([1]; read-out: Inhibition (%)) [%] | Molecule | inhibition at 1500 µM [1] [%] | other results
1 | 52.5 ± 5.5 | O=c1cc(-c2ccc(O)cc2)oc2cc(O)cc(O)c12 [apigenin] |  | 
2 |  | Oc1cc(O)c2c(c1)O[C@H](c1ccc(O)c(O)c1)[C@@H](O)C2 [Cianidanol] |  | inhibition at 1500 µM [2]: 34.9 ± 4%
3 |  | O=C(O)c1ccc(O)c(O)c1 [protocatechuic acid] | 68.3 ± 2.9 | 
4 | 61.9 ± 2.8 | O=C(O)c1cc(O)c(O)c(O)c1 [gallic acid] |  | 
5 |  | CNC(=C[N+](=O)[O-])NCCSCc1ccc(CN(C)C)o1 [ranitidine] |  | IC50 [3]: 390 µM
6 |  | COc1cc(C(=O)O)ccc1O [vanillic acid] | 55.1 ± 1 | 
7 | 58.2 ± 10.3 | O=c1oc2c(O)c(O)cc3c(=O)oc4c(O)c(O)cc1c4c23 [ellagic acid] |  | 
8 |  | O=C1C[C@@H](c2ccc(O)cc2)Oc2cc(O)cc(O)c21 [naringenin] | 75.5 ± 2.1 | 
9 |  | Alcohol dehydrogenase (ADH) (Saccharomyces cerevisiae S288C) (protein) SIPETQKGVIFYESHGKLEYKDIPVPKPKANELLINVKYSGVCHTDLHAWHGDWPLPVKLPLVGGHEGAGVVVGMGENVKGWKIGDYAGIKWLNGSCMACEYCELGNESNCPHADLSGYTHDGSFQQYATADAVQAAHIPQGTDLAQVAPILCAGITVYKALKSANLMAGHWVAISGAAGGLGSLAVQYAKAMGYRVLGIDGGEGKEELFRSIGGEVFIDFTKEKDIVGAVLKATDGGAHGVINVSVSEAAIEASTRYVRANGTTVLVGMPAGAKCCSDVFNQVVKSISIVGSYVGNRADTREALDFFARGLVKSPIKVVGLSTLPEIYEKMEKGQIVGRYVVDTSK |  | Km [4]: 5.33 mM

From PMC10386709, “Preparation of Alcohol Dehydrogenase–Zinc Phosphate Hybrid Nanoflowers through Biomimetic Mineralization and Its Application in the Inhibitor Screening” (Molecules, 2023)
